Source: article PMC7655571, “Acetylcholinesterase inhibition in electric eel and human donor blood: an in vitro approach to investigate interspecies differences and human variability in toxicodynamics” (Archives of Toxicology, 2020)
“And” between values parts separate entries of the source, which are not always exact repeats. Equal values may be shown once. Read-outs that look alike come from different tables or passages of the source.

What was measured:
[1] = measured or estimated in plasma following human exposure, cited from earlier work
electric eel AChE = conditions: cited from earlier work
[2] = target: T1, Electrophorus electricus AChE (Electrophorus electricus, UniProt O42275); test: AChE inhibition, electric eel enzyme (Ellman method); assay type: biochemical; conditions: for AChE inhibition (in words), electric eel: concentration–response curves
T1 construct: purchased Sigma-Aldrich C2888
T1 sequence (O42275 24-633): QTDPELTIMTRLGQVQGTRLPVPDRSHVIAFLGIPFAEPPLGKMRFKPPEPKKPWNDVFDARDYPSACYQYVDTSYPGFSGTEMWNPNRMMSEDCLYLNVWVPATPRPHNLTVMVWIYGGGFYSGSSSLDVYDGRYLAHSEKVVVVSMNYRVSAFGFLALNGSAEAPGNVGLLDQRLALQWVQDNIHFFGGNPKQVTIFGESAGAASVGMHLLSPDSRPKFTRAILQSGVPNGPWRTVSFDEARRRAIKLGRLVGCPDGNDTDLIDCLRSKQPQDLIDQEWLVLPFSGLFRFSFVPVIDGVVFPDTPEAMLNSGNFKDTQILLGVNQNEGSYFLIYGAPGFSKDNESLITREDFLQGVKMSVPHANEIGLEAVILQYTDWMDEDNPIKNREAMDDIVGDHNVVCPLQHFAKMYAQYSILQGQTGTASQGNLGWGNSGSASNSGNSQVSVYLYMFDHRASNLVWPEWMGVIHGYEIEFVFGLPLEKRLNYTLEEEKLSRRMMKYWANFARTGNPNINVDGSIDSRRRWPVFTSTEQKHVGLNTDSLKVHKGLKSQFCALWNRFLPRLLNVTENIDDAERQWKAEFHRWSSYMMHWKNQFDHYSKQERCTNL

human blood AChE = target: T2, human blood AChE (Homo sapiens, UniProt P22303); test: AChE inhibition in human donor whole blood (Ellman method); assay type: biochemical; conditions: for AChE inhibition (in words), human blood: concentration–response curves; for Coefficient of variation (CV) C1 Human: concentration level C1 (Table S2); for Coefficient of variation (CV) C2 Human: concentration level C2 (Table S2); for Coefficient of variation (CV) C3 Human: concentration level C3 (Table S2); for Coefficient of variation (CV) C4 Human: concentration level C4 (Table S2); for Human uncertainty factor (UF) UF97.5: interindividual differences, concentration closest to the IC20, 95% CI in brackets
T2 construct: 90 µL undiluted blood in a 48-wells plate; from tissue; host or cells: venous EDTA whole blood from healthy human donors, lysed and diluted in Triton X-100 buffer
T2 sequence (P22303 32-617 isoform P22303-2 limits assumed): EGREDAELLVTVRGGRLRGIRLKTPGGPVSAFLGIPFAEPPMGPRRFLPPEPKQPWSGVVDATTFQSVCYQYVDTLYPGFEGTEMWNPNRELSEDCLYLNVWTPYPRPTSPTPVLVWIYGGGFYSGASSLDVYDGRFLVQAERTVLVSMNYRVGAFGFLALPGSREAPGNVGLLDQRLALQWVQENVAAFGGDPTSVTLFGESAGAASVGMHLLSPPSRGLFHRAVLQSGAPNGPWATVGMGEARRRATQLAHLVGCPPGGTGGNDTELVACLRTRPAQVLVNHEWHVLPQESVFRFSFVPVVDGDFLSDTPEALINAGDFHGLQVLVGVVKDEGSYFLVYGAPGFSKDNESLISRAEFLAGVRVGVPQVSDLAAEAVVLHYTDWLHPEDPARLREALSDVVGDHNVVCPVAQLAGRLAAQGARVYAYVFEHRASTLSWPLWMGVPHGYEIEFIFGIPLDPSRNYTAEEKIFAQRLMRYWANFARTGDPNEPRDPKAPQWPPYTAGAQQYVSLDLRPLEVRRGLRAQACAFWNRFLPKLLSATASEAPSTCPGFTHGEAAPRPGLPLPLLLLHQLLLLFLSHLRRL

human AChE (neocortex) = conditions: source: neocortex; ref Jackisch et al. [2009]; cited from earlier work
[3] = target: human AChE (recombinant enzyme); conditions: source: recombinant enzyme; ref Li et al. ([2019]); cited from earlier work
[4] = 30 min exposure, room temperature
[5] = human variability in AChE inhibition
[6] = whole blood, average of 20 donors, read-out: IC20 Human

## CCOP(=O)(OCC)Oc1nc(Cl)c(Cl)cc1Cl [CPO, Chlorpyrifos-oxon]
[1]; ref Eyer et al. ([2009])
  In vivo concentration: ≤ 0.06 µM
[1]; ref Heilmair et al. ([2008])
  In vivo concentration: ≤ 0.02 µM
Electric eel AChE; ref Jett et al. ([1999])
  IC50: 0.01 µM
Electric eel AChE; ref Meijer et al. ([2014])
  IC50: 0.01 µM
Electric eel AChE; ref Čolović et al. ([2011])
  IC50: 0.03 µM
[2]; [4]
  IC20: 0.01 µM
[2]
  AChE inhibition (in words), electric eel: show inhibition of AChE
Human blood AChE
  AChE inhibition (in words), human blood: show inhibition of AChE
  Human uncertainty factor (UF) UF97.5: 2.2 and 2.2 [1.9–2.7]
Human blood AChE; donor 3, read-out: IC20 Value
  IC20: 0.1 µM
Human blood AChE; donor 4, read-out: IC20 Value
  IC20: 0.1 µM
Human blood AChE; donor 5, read-out: IC20 Value
  IC20: 0.1 µM
Human blood AChE; donor 8, read-out: IC20 Value
  IC20: 0.1 µM
Human blood AChE; donor 11, read-out: IC20 Value
  IC20: 0.1 µM
Human blood AChE; donor 15, read-out: IC20 Value
  IC20: 0.1 µM
Human blood AChE; donor 17, read-out: IC20 Value
  IC20: 0.1 µM
Human blood AChE; human donor blood
  concentration at which AChE activity is inhibited completely: ≥ 2.9 µM
Human blood AChE; [5]
  Coefficient of variation (CV) C1 Human: 5.5%
  Coefficient of variation (CV) C2 Human: 6.0%
  Coefficient of variation (CV) C3 Human: 12%
  Coefficient of variation (CV) C4 Human: 99%
Human blood AChE; [6]
  IC20: 0.17 µM

## CCN(C)C(=O)Oc1cccc([C@H](C)N(C)C)c1 [RI, rivastigmine]
[1]; ref Hossain et al. ([2002])
  In vivo concentration: […]
[1]; ref Lefèvre et al. ([2016])
  In vivo concentration: […]
Electric eel AChE; ref Imramovsky et al. [2012]
  IC50: […]
Electric eel AChE; ref Kratky et al. [2018]
  IC50: […]
[2]; [4]
  IC20: 16 µM
[2]
  AChE inhibition (in words), electric eel: show inhibition of AChE
Human AChE (neocortex)
  IC50: […]

## CCOP(=O)(OCC)Oc1cc(C)nc(C(C)C)n1 [DZO, diazinon-oxon]
Electric eel AChE; ref Čolović et al. ([2011])
  IC50: 0.05 µM
[2]; [4]
  IC20: 0.41 µM
[2]; 30 min exposure, room temperature, 3–4 independent experiments, read-out: IC50 Electric eel
  IC50: 1.03 µM
[2]
  AChE inhibition (in words), electric eel: show inhibition of AChE
[3]
  IC50: 1.3 µM
Human blood AChE
  AChE inhibition (in words), human blood: show inhibition of AChE
  Human uncertainty factor (UF) UF97.5: 1.4 [1.2–1.6]
Human blood AChE; donor 1, read-out: IC20 Value
  IC20: 0.5 µM
Human blood AChE; donor 1, read-out: IC50 Value
  IC50: 1.5 µM
Human blood AChE; donor 2, read-out: IC20 Value
  IC20: 0.7 µM
Human blood AChE; donor 2, read-out: IC50 Value
  IC50: 1.7 µM
Human blood AChE; donor 3, read-out: IC20 Value
  IC20: 1 µM
Human blood AChE; donor 3, read-out: IC50 Value
  IC50: 2.3 µM
Human blood AChE; donor 4, read-out: IC20 Value
  IC20: 0.4 µM
Human blood AChE; donor 4, read-out: IC50 Value
  IC50: 1.5 µM
Human blood AChE; donor 5, read-out: IC20 Value
  IC20: 0.7 µM
Human blood AChE; donor 5, read-out: IC50 Value
  IC50: 1.6 µM
Human blood AChE; donor 6, read-out: IC20 Value
  IC20: 1.4 µM
Human blood AChE; donor 6, read-out: IC50 Value
  IC50: 2.6 µM
Human blood AChE; donor 7, read-out: IC20 Value
  IC20: 1.2 µM
Human blood AChE; donor 7, read-out: IC50 Value
  IC50: 2.4 µM
Human blood AChE; donor 8, read-out: IC20 Value
  IC20: 1.2 µM
Human blood AChE; donor 8, read-out: IC50 Value
  IC50: 2.2 µM
Human blood AChE; donor 9, read-out: IC20 Value
  IC20: 1.1 µM
Human blood AChE; donor 9, read-out: IC50 Value
  IC50: 2.1 µM
Human blood AChE; donor 10, read-out: IC20 Value
  IC20: 1.9 µM
Human blood AChE; donor 10, read-out: IC50 Value
  IC50: 4.5 µM
Human blood AChE; donor 11, read-out: IC20 Value
  IC20: 1.7 µM
Human blood AChE; donor 11, read-out: IC50 Value
  IC50: 2.9 µM
Human blood AChE; donor 12, read-out: IC20 Value
  IC20: 1.9 µM
Human blood AChE; donor 12, read-out: IC50 Value
  IC50: 3.7 µM
Human blood AChE; donor 13, read-out: IC20 Value
  IC20: 1.1 µM
Human blood AChE; donor 14, read-out: IC20 Value
  IC20: 1.3 µM
Human blood AChE; donor 14, read-out: IC50 Value
  IC50: 2.8 µM
Human blood AChE; donor 15, read-out: IC20 Value
  IC20: 0.9 µM
Human blood AChE; donor 15, read-out: IC50 Value
  IC50: 1.9 µM
Human blood AChE; donor 16, read-out: IC20 Value
  IC20: 1.3 µM
Human blood AChE; donor 16, read-out: IC50 Value
  IC50: 3 µM
Human blood AChE; donor 17, read-out: IC20 Value
  IC20: 0.9 µM
Human blood AChE; donor 17, read-out: IC50 Value
  IC50: 2.2 µM
Human blood AChE; donor 18, read-out: IC20 Value
  IC20: 1.4 µM
Human blood AChE; donor 18, read-out: IC50 Value
  IC50: 2.9 µM
Human blood AChE; donor 19, read-out: IC20 Value
  IC20: 1.9 µM
Human blood AChE; donor 19, read-out: IC50 Value
  IC50: 3.4 µM
Human blood AChE; donor 20, read-out: IC20 Value
  IC20: 1.3 µM
Human blood AChE; donor 20, read-out: IC50 Value
  IC50: 2.7 µM
Human blood AChE; [5]
  Coefficient of variation (CV) C1 Human: 5.9%
  Coefficient of variation (CV) C2 Human: 5.7%
  Coefficient of variation (CV) C3 Human: 6.8%
  Coefficient of variation (CV) C4 Human: 6.1%
Human blood AChE; human variability in AChE inhibition, concentration level C5 (Table S2)
  Coefficient of variation (CV) C5 Human: 8.5%
Human blood AChE; human variability in AChE inhibition, highest concentration C6 (Table S2)
  Coefficient of variation (CV) C6 Human: 25%
Human blood AChE; [6]
  IC20: 1.2 µM
Human blood AChE; whole blood, average of 20 donors, read-out: IC50 Human
  IC50: 2.5 µM
